From PMC7026418, “The kinase polypharmacology landscape of clinical PARP inhibitors” (Scientific Reports, 2020)
Like-named read-outs stand apart in the source and are kept apart here. Blank lines part the entries; values can stand above or below the compound they belong to.

Experiments:
Assay in all cases: biochemical
Set-up in all cases: DiscoveRx KINOMEscan active site-directed competition binding; percent of control kinase bound to immobilised ligand
MARK4 = target: T1, MARK4 (Homo sapiens, UniProt Q96L34)
T1 sequence (Q96L34 1-752): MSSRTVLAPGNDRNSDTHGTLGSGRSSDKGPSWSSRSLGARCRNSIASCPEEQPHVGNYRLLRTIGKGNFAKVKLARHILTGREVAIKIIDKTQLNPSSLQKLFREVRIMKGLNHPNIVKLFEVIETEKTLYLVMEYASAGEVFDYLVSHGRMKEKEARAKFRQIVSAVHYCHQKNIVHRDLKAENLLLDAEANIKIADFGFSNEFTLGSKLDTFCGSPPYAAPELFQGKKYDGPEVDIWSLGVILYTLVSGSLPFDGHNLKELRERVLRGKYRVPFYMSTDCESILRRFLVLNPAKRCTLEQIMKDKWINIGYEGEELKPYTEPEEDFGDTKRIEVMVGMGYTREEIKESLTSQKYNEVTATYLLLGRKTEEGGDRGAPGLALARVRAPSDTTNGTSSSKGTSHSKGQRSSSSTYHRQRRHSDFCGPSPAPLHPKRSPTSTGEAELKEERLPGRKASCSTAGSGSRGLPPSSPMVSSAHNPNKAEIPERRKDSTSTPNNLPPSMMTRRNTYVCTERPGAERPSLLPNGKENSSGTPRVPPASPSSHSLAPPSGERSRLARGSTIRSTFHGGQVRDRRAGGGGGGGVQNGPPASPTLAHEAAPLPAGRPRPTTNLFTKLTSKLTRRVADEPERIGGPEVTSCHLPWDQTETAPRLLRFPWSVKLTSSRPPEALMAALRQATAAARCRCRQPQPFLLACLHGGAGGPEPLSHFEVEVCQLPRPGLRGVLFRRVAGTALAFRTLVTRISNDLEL

MYLK = MYLK (Homo sapiens, UniProt Q15746)
Sequence of MYLK (Q15746 whole entry): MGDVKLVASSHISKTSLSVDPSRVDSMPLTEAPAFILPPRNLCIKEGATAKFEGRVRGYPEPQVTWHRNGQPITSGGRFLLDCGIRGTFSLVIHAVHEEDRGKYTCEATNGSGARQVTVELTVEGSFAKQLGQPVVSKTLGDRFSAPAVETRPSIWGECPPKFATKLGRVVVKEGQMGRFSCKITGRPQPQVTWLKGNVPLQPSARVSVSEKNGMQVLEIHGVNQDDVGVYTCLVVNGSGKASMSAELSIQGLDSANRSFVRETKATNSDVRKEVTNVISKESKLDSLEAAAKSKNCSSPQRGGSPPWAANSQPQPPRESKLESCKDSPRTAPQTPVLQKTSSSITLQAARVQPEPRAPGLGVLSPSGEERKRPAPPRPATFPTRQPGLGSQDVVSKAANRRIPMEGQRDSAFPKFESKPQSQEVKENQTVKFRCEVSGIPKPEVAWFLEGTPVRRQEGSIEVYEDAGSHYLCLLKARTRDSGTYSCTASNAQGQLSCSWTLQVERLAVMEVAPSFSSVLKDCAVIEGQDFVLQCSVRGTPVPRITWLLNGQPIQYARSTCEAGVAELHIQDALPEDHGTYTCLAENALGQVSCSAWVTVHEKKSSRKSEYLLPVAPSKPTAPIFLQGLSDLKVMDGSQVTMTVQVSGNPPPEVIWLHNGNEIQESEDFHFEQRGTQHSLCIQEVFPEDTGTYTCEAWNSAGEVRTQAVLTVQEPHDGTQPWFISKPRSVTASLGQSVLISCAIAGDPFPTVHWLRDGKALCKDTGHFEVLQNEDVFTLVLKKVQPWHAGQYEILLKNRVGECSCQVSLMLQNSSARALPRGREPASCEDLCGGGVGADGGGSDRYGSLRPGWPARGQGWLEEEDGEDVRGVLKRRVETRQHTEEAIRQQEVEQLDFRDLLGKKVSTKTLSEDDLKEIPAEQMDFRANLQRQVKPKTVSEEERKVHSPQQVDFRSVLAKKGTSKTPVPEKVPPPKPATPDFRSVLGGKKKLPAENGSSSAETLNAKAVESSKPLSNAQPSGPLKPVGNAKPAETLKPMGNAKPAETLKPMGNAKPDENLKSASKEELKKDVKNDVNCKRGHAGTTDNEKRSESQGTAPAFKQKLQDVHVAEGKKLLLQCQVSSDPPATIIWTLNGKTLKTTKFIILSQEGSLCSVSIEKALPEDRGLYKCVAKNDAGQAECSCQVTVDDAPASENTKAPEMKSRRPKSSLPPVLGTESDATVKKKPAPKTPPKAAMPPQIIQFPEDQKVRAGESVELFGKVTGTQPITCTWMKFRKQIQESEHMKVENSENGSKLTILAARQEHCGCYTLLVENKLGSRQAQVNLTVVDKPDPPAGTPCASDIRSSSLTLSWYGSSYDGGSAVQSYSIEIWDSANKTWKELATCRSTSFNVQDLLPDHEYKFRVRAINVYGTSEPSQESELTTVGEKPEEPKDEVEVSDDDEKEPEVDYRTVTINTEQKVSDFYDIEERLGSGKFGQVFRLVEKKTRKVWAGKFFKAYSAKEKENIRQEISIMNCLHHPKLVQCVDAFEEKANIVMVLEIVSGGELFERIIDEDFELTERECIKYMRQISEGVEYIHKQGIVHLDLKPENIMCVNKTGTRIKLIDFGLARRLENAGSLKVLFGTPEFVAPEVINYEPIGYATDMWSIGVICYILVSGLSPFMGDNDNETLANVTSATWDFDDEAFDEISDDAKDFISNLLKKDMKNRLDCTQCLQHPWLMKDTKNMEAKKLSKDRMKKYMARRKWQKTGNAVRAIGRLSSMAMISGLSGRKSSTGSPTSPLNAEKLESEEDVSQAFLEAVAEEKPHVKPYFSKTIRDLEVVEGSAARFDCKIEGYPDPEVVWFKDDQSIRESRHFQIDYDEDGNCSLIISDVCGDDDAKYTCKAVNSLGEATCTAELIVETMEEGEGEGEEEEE

MYLK4 = target: T2, MYLK4 (Homo sapiens, UniProt Q86YV6)
T2 sequence (Q86YV6 1-388): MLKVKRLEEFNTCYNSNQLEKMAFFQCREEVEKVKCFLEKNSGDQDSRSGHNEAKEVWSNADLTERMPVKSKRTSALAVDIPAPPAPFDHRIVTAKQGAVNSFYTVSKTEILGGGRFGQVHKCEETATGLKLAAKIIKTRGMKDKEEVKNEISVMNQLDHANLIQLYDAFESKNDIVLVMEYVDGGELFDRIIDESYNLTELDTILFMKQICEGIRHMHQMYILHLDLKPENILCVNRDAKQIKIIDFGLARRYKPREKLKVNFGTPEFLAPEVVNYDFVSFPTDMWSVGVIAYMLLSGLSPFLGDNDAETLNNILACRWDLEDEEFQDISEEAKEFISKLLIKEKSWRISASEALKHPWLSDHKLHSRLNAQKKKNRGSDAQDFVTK

TRKC = target: T3, TRKC (Homo sapiens, UniProt Q16288)
T3 construct: gene NTRK3
T3 sequence (Q16288 whole entry): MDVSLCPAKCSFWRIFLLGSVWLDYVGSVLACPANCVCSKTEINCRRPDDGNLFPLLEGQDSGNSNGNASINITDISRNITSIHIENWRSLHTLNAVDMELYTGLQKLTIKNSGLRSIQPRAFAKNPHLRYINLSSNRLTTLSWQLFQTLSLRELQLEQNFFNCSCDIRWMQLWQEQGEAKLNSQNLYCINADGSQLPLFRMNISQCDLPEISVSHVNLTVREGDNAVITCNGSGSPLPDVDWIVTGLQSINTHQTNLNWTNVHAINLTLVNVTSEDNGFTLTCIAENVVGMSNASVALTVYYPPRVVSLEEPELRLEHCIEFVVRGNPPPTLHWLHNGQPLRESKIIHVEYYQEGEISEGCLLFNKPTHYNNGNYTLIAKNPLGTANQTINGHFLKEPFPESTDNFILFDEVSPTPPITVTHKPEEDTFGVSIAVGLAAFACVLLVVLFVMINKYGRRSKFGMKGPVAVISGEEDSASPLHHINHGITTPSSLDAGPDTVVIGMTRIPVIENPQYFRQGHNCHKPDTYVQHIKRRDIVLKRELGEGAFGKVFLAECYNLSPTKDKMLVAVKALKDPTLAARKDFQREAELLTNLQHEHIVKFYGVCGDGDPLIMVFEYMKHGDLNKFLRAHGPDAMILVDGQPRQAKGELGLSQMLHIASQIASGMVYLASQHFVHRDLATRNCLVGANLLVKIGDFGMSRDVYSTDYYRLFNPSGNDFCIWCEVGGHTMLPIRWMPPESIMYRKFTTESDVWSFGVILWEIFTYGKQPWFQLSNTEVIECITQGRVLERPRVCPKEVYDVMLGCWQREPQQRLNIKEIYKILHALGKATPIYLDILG

TYRO3 = target: T4, TYRO3 (Homo sapiens, UniProt Q06418)
T4 sequence (Q06418 1-890): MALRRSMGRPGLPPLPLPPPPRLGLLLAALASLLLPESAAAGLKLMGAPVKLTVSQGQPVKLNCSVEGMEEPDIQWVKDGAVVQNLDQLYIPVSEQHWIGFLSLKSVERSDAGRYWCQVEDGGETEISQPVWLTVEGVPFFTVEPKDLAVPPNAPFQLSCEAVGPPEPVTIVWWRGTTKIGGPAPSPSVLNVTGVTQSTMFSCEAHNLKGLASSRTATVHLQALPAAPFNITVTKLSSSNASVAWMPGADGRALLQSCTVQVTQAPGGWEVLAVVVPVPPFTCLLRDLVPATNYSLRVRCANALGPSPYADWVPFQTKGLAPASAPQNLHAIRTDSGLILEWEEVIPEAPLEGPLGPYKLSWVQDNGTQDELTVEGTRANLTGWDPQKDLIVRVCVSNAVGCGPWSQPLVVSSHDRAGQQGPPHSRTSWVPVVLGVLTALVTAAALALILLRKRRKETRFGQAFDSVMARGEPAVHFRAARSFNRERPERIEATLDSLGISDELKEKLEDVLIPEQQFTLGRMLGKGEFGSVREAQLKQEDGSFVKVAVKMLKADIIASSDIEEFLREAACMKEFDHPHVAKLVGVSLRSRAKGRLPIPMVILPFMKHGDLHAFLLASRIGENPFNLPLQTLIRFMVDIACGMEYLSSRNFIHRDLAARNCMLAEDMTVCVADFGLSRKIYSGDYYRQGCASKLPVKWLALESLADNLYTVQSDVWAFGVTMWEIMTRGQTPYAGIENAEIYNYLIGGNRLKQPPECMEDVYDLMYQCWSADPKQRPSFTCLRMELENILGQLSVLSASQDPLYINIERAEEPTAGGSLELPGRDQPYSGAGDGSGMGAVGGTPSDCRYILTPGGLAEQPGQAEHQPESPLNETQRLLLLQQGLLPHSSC

[1] = read-out: Niraparib (MK-4827) / %Ctrl @ 10000nM
[2] = read-out: Olaparib / %Ctrl @ 10000nM
[3] = read-out: Rucaparib / %Ctrl @ 10000nM, binding competition, % of control
[4] = read-out: Talazoparib (BMN 673) / %Ctrl @ 10000nM

SMILES: NC(=O)c1cccc2cn(-c3ccc([C@@H]4CCCNC4)cc3)nc12 [Niraparib]
percent of control binding at 10 µM (MARK4; [1]): 98%
percent of control binding at 10 µM (MYLK; [1]): 73%
percent of control binding at 10 µM (MYLK4; [1]): 20%
percent of control binding at 10 µM (TRKC; [1]): 95%
percent of control binding at 10 µM (TYRO3; [1]): 89%

percent of control binding at 10 µM (MARK4; [2]): 88%
percent of control binding at 10 µM (MYLK; [2]): 75%
percent of control binding at 10 µM (MYLK4; [2]): 92%
percent of control binding at 10 µM (TRKC; [2]): 92%
percent of control binding at 10 µM (TYRO3; [2]): 100%
SMILES: O=C(c1cc(Cc2n[nH]c(=O)c3ccccc23)ccc1F)N1CCN(C(=O)C2CC2)CC1 [Olaparib]

percent of control binding at 10 µM (MARK4; [3]): 86%
percent of control binding at 10 µM (MYLK; [3]): 34%
percent of control binding at 10 µM (MYLK4; [3]): 1.3%
percent of control binding at 10 µM (TRKC; [3]): 88%
percent of control binding at 10 µM (TYRO3; [3]): 100%
SMILES: CNCc1ccc(-c2[nH]c3cc(F)cc4c3c2CCNC4=O)cc1 [Rucaparib]

percent of control binding at 10 µM (MARK4; [4]): 100%
percent of control binding at 10 µM (MYLK; [4]): 77%
percent of control binding at 10 µM (MYLK4; [4]): 90%
percent of control binding at 10 µM (TRKC; [4]): 100%
percent of control binding at 10 µM (TYRO3; [4]): 100%
SMILES: Cn1ncnc1[C@H]1c2n[nH]c(=O)c3cc(F)cc(c23)N[C@@H]1c1ccc(F)cc1 [Talazoparib]
